# According to patent US10590393B2, “Retinoic acid enhanced human stem cell derived blood brain barrier model” (Wisconsin Alumni Research Foundation, priority 2012, dated 2020):
# “And” between values parts separate entries of the source, which are not always exact repeats. Identical values can stand only once.
# How the values were obtained:
# Assay type in all cases: cell-based, human
# [1] = tested on: H9-derived BMECs; assay: TEER of RA-treated H9-derived BMECs
# Experimental: IMR90-4 and DF19-9-11T hiPSCs and H9 hESCs were maintained between passages 26-42 on […] (BD Biosciences) in mTeSR1™ medium ([…] Technologies) or on irradiated mouse embryonic fibroblasts (MEFs) in standard unconditioned medium (Dulbecco's Modified Eagle's Medium [DMEM]/Ham's F12 containing 20% Knockout Serum Replacer (Invitrogen), 1×MEM nonessential amino acids (Invitrogen), 1 mM L-glutamine (Sigma), 0.1 mM β-mercaptoethanol (Sigma), and human basic fibroblast growth factor (bFGF; 100 ng/mL for hiPSCs and 4 ng/mL for hESCs; Waisman Clinical Biomanufacturing Facility, University of Wisconsin-Madison)). Prior to differentiation, cells were passaged onto Matrigel (BD Biosciences) in mTeSR1 medium ([…] Technologies). After 2-3 days in mTeSR1, medium was switched to unconditioned medium (UM) lacking bFGF for 6 days. Human endothelial serum-free medium (hESFM; Invitrogen) supplemented with 20 ng/mL bFGF (R&D Systems) and 1% platelet-poor plasma derived bovine serum (Biomedical Technologies, Inc.) was then added for an additional 2-4 days.
# All-trans RA (Sigma) was included at concentrations of 1-10 μM depending on the experiment. Equivalent DMSO was used as a vehicle control in some experiments. Cells were then dissociated with Versene (Invitrogen) and plated onto 12-well tissue culture polystyrene plates or 1.12 cm^2 Transwell-Clear® permeable inserts (0.4 μm pore size) coated with a mixture of collagen IV (400 μg/mL; Sigma) and fibronectin (100 μg/mL; Sigma). Culture plates were incubated with the coating for at least 30 min at 37° C., while the inserts were incubated for a minimum of 4 h at 37° C. hPSC-derived BMECs were then cultured in EC medium overnight (with or without RA). […] Also, our previous study used hPSCs exclusively maintained on MEFs.
# FIG. 5 dictates the timing of co-culture experiments. During the subculture phase, hPSC-derived BMECs were monocultured or co-cultured with pericytes or fibroblasts in EC medium (with or without RA). After the 24 h subculture phase, hPSC-derived BMECs were maintained as a monoculture or co-cultured with differentiated hNPCs, pericytes, or fibroblasts. Depending on the experiment, co-culture was conducted in NPC differentiation medium containing 10% FBS (as opposed to the 1% FBS used during NPC differentiation) or hESFM containing 1% PDS but not bFGF (modified EC medium). Trans-endothelial electrical resistance (TEER) was measured immediately prior to co-culture using an EVOM voltohmmeter (World Precision Instruments, Sarasota, Fla., USA) and approximately every 24 h thereafter as necessary.
# [2] = tested on: differentiating IMR90-4 hiPSCs; assay: Adherens junction and tight junction protein expression (immunocytochemistry, flow cytometry, western blot)
# Experimental: Cells were washed twice with phosphate-buffered saline (PBS; Sigma) and fixed with either 100% ice-cold methanol for 10 min or 4% paraformaldehyde for 15 min. Cells were then washed twice with PBS and blocked in PBS containing 40% goat serum (40% PBSG; Sigma) at 20° C. for 30 min. In some instances, 0.1% Triton X-100 (TX-100) was included during this step to permeabilize the cells. Cells were then washed once with PBS and incubated with primary antibodies against occludin (1:100; Invitrogen), claudin-5 (1:100; Invitrogen), VE-cadherin (1:25; Santa Cruz Biotechnology), von Willebrand Factor (vWF; 1:100; Dako), p-glycoprotein (clone F4; 1:25; Lab Vision), breast cancer resistance protein (BCRP, clone 5D3; 1:25; Millipore), multidrug resistance protein 1 (MRP1, clone QCRL-1; 1:100; Millipore), in 40% PBSG at 4° C. overnight. Cells were washed three times with PBS and incubated with secondary antibodies (goat anti-rabbit Texas Red and goat anti-mouse Alexa Fluor 488; 1:500; Invitrogen) for 1 h at 20° C. […] For quantitative analysis of BMEC integrity, the percentage of cells expressing frayed tight junctions was counted using BMECs immunolabeled for occludin. […] A minimum of four separate frames and 1000 total cells were counted to obtain a percentage of frayed tight junctions.
# Cells were washed once with PBS and dissociated with ACCUTASE for 5 min, then spun down and fixed in 2% paraformaldehyde for 15 min or 100% methanol for 10 min at 20° C. […] After another two washes with PBS containing 5% FBS, cells were analyzed on a FACSCALIBER flow cytometer and the IgG control was used to quantify positive labeling. Elevated GLUT-1 expression was quantified using a GLUT-1/forward scatter plot referenced to baseline GLUT-1 expression measured at day 4 of UM culture.
# Cells were washed once with PBS and lysed with RIPA buffer (Pierce, Rockford, Ill., USA). Protein concentration was quantified via BCA assay (Pierce) and proteins were then resolved by SDS-PAGE on 4-20% Tris-Glycine gradient gels (Invitrogen). […] Protein levels were detected via a SUPERSIGNAL West Pico Chemiluminescent Substrate (Pierce).
# [3] = tested on: IMR90-4-derived BMECs; assay: Analysis of tight junction fidelity (frayed tight junctions, occludin immunolabel)
# Experimental: Cells were washed twice with phosphate-buffered saline (PBS; Sigma) and fixed with either 100% ice-cold methanol for 10 min or 4% paraformaldehyde for 15 min. Cells were then washed twice with PBS and blocked in PBS containing 40% goat serum (40% PBSG; Sigma) at 20° C. for 30 min. In some instances, 0.1% Triton X-100 (TX-100) was included during this step to permeabilize the cells. Cells were then washed once with PBS and incubated with primary antibodies against occludin (1:100; Invitrogen), claudin-5 (1:100; Invitrogen), VE-cadherin (1:25; Santa Cruz Biotechnology), von Willebrand Factor (vWF; 1:100; Dako), p-glycoprotein (clone F4; 1:25; Lab Vision), breast cancer resistance protein (BCRP, clone 5D3; 1:25; Millipore), multidrug resistance protein 1 (MRP1, clone QCRL-1; 1:100; Millipore), in 40% PBSG at 4° C. overnight. Cells were washed three times with PBS and incubated with secondary antibodies (goat anti-rabbit Texas Red and goat anti-mouse Alexa Fluor 488; 1:500; Invitrogen) for 1 h at 20° C. Cell nuclei were counterstained with 300 nM 4′,6-Diamidino-2-pheny-lindoldihydrochloride (DAPI) for 10 min. […] For quantitative analysis of BMEC integrity, the percentage of cells expressing frayed tight junctions was counted using BMECs immunolabeled for occludin. […] A minimum of four separate frames and 1000 total cells were counted to obtain a percentage of frayed tight junctions.
smiles,measurement,setting,value
"CC1=C(/C=C/C(C)=C/C=C/C(C)=C/C(=O)O)C(C)(C)CCC1 [RA, retinoic acid]",TEER,"[1]; optimized RA schedule (6D UM, 1D EC, 3D EC+RA), after purification (FIG. 9c)",1039±142 Ω×cm^2
same,Maximum TEER,"[1]; subculture: pericytes, co-culture phase: differentiated NPCs (9 days), 1% PDS",1675±95 Ω × cm^2 and 1675 ± 95 (2) Ω × cm^2
same,Average TEER,"[1]; t = 24 h, optimized RA schedule, between biological replicates",646±308 Ω × cm^2
same,Maximum TEER,"[1]; t = 24 h, triplicate filters",1028 ± 153 Ω × cm^2
same,decrease of the level of claudin-5 expression,[2]; RA during 2 days of EC medium treatment,1.7 fold
same,increase of the level of occludin expression,"[2]; RA during 2 days of EC medium treatment, across biological replicates",1.8 to 2.9 fold
same,"positive expression for VE-cadherin, claudin-5, and occludin",[2]; purified RA-treated BMECs,95-98%
same,cells with frayed tight junctions,[3]; BMECs only treated with RA,1.5±0.9%
same,cells with frayed tight junctions,[3]; RA-treated BMECs with sequential pericyte/hNPC co-culture in modified EC medium,1.4±0.6%
